According to a melting point compilation (Tetko et al.; mined from patent text by program, amines drawn as free bases though some values may be those of a salt):

Compound | melting point [°C]
CC(C)(O)CN(c1ccc(F)cc1)[C@H]1c2cc(C#N)ccc2OC(C)(C)[C@@H]1O | 70
Brc1ccc(N(Cc2ccccc2)Cc2ccccc2)cc1 | 123
CC1(C)Oc2ccc(C(=O)CN=[N+]=[N-])cc2S1 | 52 to 53
CCOc1cc(-c2cc(C(F)(F)F)n3ncc(-c4ccnc(C)c4)c3n2)ccc1C(F)(F)F | 226
COc1cc(N2CCC(N3CC[C@@H](O)C3)CC2)ccc1[N+](=O)[O-] | 137 to 139
CCOc1c(C#N)sc(NC(C)=O)c1C#N | 267 to 268
CCn1ncnc1COc1nn2c(-c3cc(F)ccc3F)nncc2c1C(C)(C)CC | 85 to 86
CCOC(COC1CC2C3CCC4=CC(=O)C=CC4(C)C3(F)C(O)CC2(C)C1(O)C(=O)CCl)OCC (stereo not given) | 200 to 202
CCCc1ccc(OCCc2c[nH]cn2)cc1 | 168 to 171
CC(C)Cc1nc2ccc(OC(C)(C)C)cc2c(-c2ccccc2F)c1C#N | 127 to 129
COc1cccc2c1nc(C(F)F)n2-c1nc(N2CCOCC2)nc(N2CCC(NC(=O)CCl)CC2)n1 | 252 to 254
CC(C)CC(NC(=O)OCc1ccccc1)C(=O)NC(Cc1cccc2ccccc12)C(=O)CSCc1ccco1 (stereo not given) | 71 to 74
CCOC(=O)C1=Cc2cc(Cl)cc(CO[N+](=O)[O-])c2OC1C(F)(F)F (stereo not given) | 53
CCOc1cc(-c2nc(N)sc2CCC2CCCCC2)c(OC)cc1C | 96 to 97
CCOC12CCC(=O)CC13CCN(C)C2Cc1ccc(OC)cc13 (stereo not given) | 171 to 173
CCOC(=O)C=CCOc1ccc(C23CC4CC(CC(C4)C2)C3)cc1 | 91 to 93
CCC(O)(CCCCO)C(=O)Nc1ccnc(Br)c1 (stereo not given) | 103
CC(C)Oc1ccc2nc[nH]c(=O)c2c1 | 206 to 208
O=C(O)C(=O)N1CCC(Oc2ccc(F)cc2)CC1 | 147 to 149
CCCCOc1cc(/C=C(\OCC)C(=O)O)ccc1OCCc1ccc(N(C)S(=O)(=O)CCCC)cc1 | 144

Compound | melting point [°C]
COc1nc(C)c(N2CCCn3c2nc2c(Br)ccc(C(OC(F)F)C(F)(F)F)c23)c(C)n1 (stereo not given) | 211 to 213
CC(C)(C)c1cc(C(C)(C)C)c(Br)c(C(C)(C)C)c1 | 170 to 172
O=C(Nc1ccc(C(F)(F)F)cc1)NC1CCN(C(=O)Cc2c[nH]cn2)CC1 | 121 to 124
CCCCCC1C=CC(c2ccc(F)c(F)c2)=CC1 (stereo not given) | 31
CC1NC(=O)NN=C1c1ccc(N)cc1 (stereo not given) | 248 to 250
CN(CCNc1ccc([N+](=O)[O-])cc1)S(C)(=O)=O | 109
CC1(O)C(O)C(CO)OC1n1ccc2c(N=[N+]=[N-])ncnc21 (stereo not given) | 179 to 180
O=C(O)CCCCCCn1c(-c2ccccc2)nc(-c2ccccc2)c1-c1ccccc1 | 149 to 150
CS(=O)(=O)c1ccc(C(Cc2ccc(F)cc2)C(=O)Nc2nc3ccccc3o2)cc1 (stereo not given) | 109 to 110
CCOC(=O)c1noc(-c2ccc(Cl)cc2)n1 | 88 to 89
CCOC(=O)c1cn2c3c(c(C(C#N)C(=O)OCC)c(F)cc3c1=O)CCN2C (stereo not given) | 153 to 154
N#Cc1c(C(F)(F)F)ccc(Cl)c1F | 43 to 44
Cc1nc(C)c(Cl)c(CNCc2ccc(O)cn2)n1 | 137 to 138
Cn1sc(=O)n(C)c1=O | 64 to 65
CCOC(=O)c1cn(CCO)c2nc(-c3ccncc3)c(F)cc2c1=O | 223 to 225
Cc1c(NC(=O)c2ccc(-c3ccc(F)cc3)cc2)ccc2cc(CN3CCC(CCCC(N)=O)CC3)cnc12 | 232 to 234
CCCCCN1C(=O)C2(COc3ccc(-c4cncnc4)cc32)c2ccccc21 (stereo not given) | 115 to 117
CCOC(=O)c1c(S(C)(=O)=O)nc2sccn12 | 158 to 161
CC(=O)Nc1cc(Br)nn1-c1c(Cl)cc(C(F)(F)F)cc1Cl | 180 to 187
O=C(NCCNCC(O)COc1ccc(O)cc1F)C1CCOCC1 (stereo not given) | 101 to 104

Compound | melting point [°C]
Cc1c(Cl)cc(N2CCN(CCCCN3C(=O)c4ccccc4S3(=O)=O)CC2)c2c1OCCO2 | 136 to 137
N#Cc1ccc(C(=O)N2CCN(C(=O)[C@@H]3CCCN3S(=O)(=O)c3ccc(Cl)c(CBr)c3Cl)CC2)cc1 | 115
Cc1nc(CS(C)=O)nc(OC(=O)N(C)C)c1C(C)C (stereo not given) | 80
CC(=O)N[C@H]1CC[C@H](c2ccc([N+](=O)[O-])cc2)CC1 | 221 to 224
ClCc1coc(-c2cc(Cl)cs2)n1 | 72 to 73
OC(c1ccc2noc(-c3cccc(Cl)c3)c2c1)c1nc(-c2ccccc2)cs1 (stereo not given) | 136
O=C1c2ccccc2OS(=O)N1SC(Cl)(Cl)Cl (stereo not given) | 65 to 67
O=c1c2ccc3[nH]cc(CCNS(=O)(=O)c4ccccc4)c3c2ccn1Cc1ccccc1 | 205 to 206
Cn1nc(-c2ccc(F)cc2)c(-c2ccncc2)c1NC(=O)Cc1ccc(O)cc1 | 127 to 129
Brc1ccc2c(c1)OCCN2C1CCOCC1 | 66.2
N#Cc1cc(F)ccc1N1CCN(Cc2cn3cc(Cl)ccc3n2)CC1 | 179 to 180
CN(CC1(C)Cn2cc([N+](=O)[O-])nc2O1)C(=O)OCc1ccc(F)cc1 (stereo not given) | 169 to 170
Clc1ccc(C=Cc2nc(CNc3ccc(CCCCn4ccnn4)cc3)co2)cc1Cl | 76.8 to 78.8
CCCCCCCCCCCC=CC(O)C(COC1OC(CO)C(O)C(O)C1O)NC(=O)CCCCCCCCCCCCCCC (stereo not given) | 207 to 209
O=C(O)CCc1ccc(SCCC(c2ccccc2)(c2ccccc2)c2ccccc2)cc1 | 51 to 53
Cc1ccc2c(=O)[nH]c(=O)n(C(C)C)c2c1 | 250 to 251
CCN1CCN(c2nccc(Oc3ccc(NC(=O)c4cc(F)cc(N5CCCCC5)c4)c4ccccc34)n2)CC1 | 86 to 87
CNc1ccc(OC2CCN(c3ccncc3)CC2)cc1 | 161 to 164

Further lines, results first:

melting point [°C] | Compound
> 250 | O=C(Nc1cccc2c3c(oc12)CCS(=O)C3)c1c(Cl)cccc1Cl (stereo not given)
129 to 130 | Cc1cc(C)cc(-c2ccc3c(c2)CC[C@H]2N(C)C(=O)CC[C@]32C)c1
173 to 175 | COc1ccc(C2=CC(=Nc3c(C)cc(C)cc3C)N(C)CN2C(C)=O)cc1OC
253 | CCC(C)(C)c1ccc(Oc2ccncc2NC(=O)c2ccccc2)c(C(C)(C)CC)c1
124 to 125 | O=C(c1ccc(Cl)c(Cl)c1)N1CCCC(c2cccs2)=N1
149 to 153 | OC1CCCc2nc3cc(F)ccc3c(NCc3ccccc3C(F)(F)F)c21 (stereo not given)
92 to 93 | COc1ccc(C23CCCC2(c2ccc(OC)cc2)C3)cc1 (stereo not given)
169 | CC(C)CCNC(=O)c1ccccc1-c1ccccc1CN1C(=O)c2ccccc2C1=O
69 to 71 | COc1cccc(N(C)CCNC(C)=O)c1
178 to 180 | Cc1ccnc(NC(=O)Nc2cccc3c2C2CCCCN2C3=O)c1 (stereo not given)
124 to 126 | CC(=O)c1ccc(OCc2ccccc2)c2c1OC(C)(C)C(=O)N2
245 to 247 | c1ccc2c(c1)CC1(C3=NCCN3)CC21 (single isomer, unassigned; (+))
193 to 195 | COc1ccccc1N1CCc2c1c1cccc(C)c1[nH]c2=O
231 to 232 | COc1cccc2c(=O)[nH]c(-c3cc(C)c(OCCN4CCCC4)c(C)c3)nc12
143 to 147 | COC(=O)CP(=O)(O)C(CCc1ccccc1)NC(=O)OCc1ccccc1 (stereo not given)
126 to 128 | COC(=O)C1CCc2cc(C(=O)c3ccccc3)c(OC)cc21 (stereo not given)
128 to 129 | CCc1cc(COc2nn(Cc3ccccc3)cc2C=O)ccc1OCc1nc(-c2ccco2)oc1C
240 to 242 | CCN(C(=O)Cn1c(=O)n(C)c2nc(-c3ccccc3)ncc21)c1ccccc1
215 | COC(=O)c1cccc(NC(=O)NCC(=O)O)c1
112 | Cc1ccc2[nH]c3c(c2c1)CC(C)CC3 (stereo not given)
205 to 208 | CCNc1ccc(C(=O)Nc2ccc(OC)cc2)c(NC(=O)c2ccc(C(C)(C)C)cc2)c1

melting point [°C] | Compound
251 to 252 | c1ccc(Nc2ccnc3[nH]cnc23)cc1
127 to 129 | CCOC(=O)CCCNC(=O)Cn1c(-c2cccc(Cl)c2)nc2cccnc21
191 to 192 | CC(=O)OC1OCC[C@@H]1NC(=O)CCC(=O)Nc1ccc(Nc2ccccc2)cc1 (stereo not given in full)
122 to 124 | NC(=O)CCC(=O)c1ccccc1
128 to 130 | O=C(Nc1ccc(Br)cn1)C(CC1CCCC1)c1ccc(Cl)c([N+](=O)[O-])c1 (stereo not given)
113 to 114 | CC(=O)N[C@@H](Cc1cn(Cc2ccccc2)cn1)C(=O)OCc1ccccc1
87 to 89 | CCOC(=O)c1cc2cc(OC(C)=O)ccc2n1C
133 to 135 | CCCc1c(OCC2COc3c(F)cc(CC(=O)O)cc32)ccc(C(C)=O)c1O (stereo not given)
194 to 197 | N#Cc1ccc(C(=C2CCOC2=O)n2ccnc2)cc1
137 | CCn1cc(CN(C(=O)C2CCCc3cc(OCCO)ccc32)c2ccc(C(C)C)cc2)cn1 (stereo not given)
50 | O=Cc1cnc(Oc2ccccc2)s1
192 | O=C(O)c1cc(S(=O)Cc2ccccc2)c(Cl)cc1Cl (stereo not given)
184 to 187 | O=C(O)c1cc2cc(OCCc3ccccc3)ccc2[nH]1
65 | CCCC(=O)c1ccc(OC)c(C(=O)Cl)c1
104 to 105 | COc1ccc(C2CCN(C(=O)NCc3ccccn3)CC2)cc1OC1CCCC1
159 to 164 | CCOc1ccc(-c2ccc3c(c2)C=C(C(=O)OC)CCN3)cc1OCC
215 to 220 | O=C(NC(=O)c1c(F)cccc1F)Nc1ccc(C(F)(F)F)cn1
71 to 73 | COc1ccc(C2(C#Cc3cccc(C(=O)O)c3)CCCC(=O)C2)cc1OC1CCCC1 (stereo not given)
85 to 88 | Cc1cccc(OC(C)(C)C(=O)NCCc2ccc(OC(C)(C)C(=O)O)cc2)c1
189 to 190 | CCOC(=O)c1cc(NCc2ccccc2)c(Nc2cccc(C(F)(F)F)c2)c(S(N)(=O)=O)c1
164 to 166 | CC(C)c1cccc(C(C)C)c1NC(=O)CNC(c1ccccc1)c1cccs1 (stereo not given)
